According to the Kinase Knowledgebase extract (Sharma et al. 2016):

Legend:
Experiment in all cases: Enzyme Assay
[1] = target: PIK3CG (human) (UniProt P48736)
[2] = target: PIK3CD (Human) (UniProt O00329)
[3] = target: PIK3CA (human) (UniProt P42336)
[4] = target: PIK3CB (Human) (UniProt P42338)
PIK3CB (Human), sequence (P42338 whole entry, looked up): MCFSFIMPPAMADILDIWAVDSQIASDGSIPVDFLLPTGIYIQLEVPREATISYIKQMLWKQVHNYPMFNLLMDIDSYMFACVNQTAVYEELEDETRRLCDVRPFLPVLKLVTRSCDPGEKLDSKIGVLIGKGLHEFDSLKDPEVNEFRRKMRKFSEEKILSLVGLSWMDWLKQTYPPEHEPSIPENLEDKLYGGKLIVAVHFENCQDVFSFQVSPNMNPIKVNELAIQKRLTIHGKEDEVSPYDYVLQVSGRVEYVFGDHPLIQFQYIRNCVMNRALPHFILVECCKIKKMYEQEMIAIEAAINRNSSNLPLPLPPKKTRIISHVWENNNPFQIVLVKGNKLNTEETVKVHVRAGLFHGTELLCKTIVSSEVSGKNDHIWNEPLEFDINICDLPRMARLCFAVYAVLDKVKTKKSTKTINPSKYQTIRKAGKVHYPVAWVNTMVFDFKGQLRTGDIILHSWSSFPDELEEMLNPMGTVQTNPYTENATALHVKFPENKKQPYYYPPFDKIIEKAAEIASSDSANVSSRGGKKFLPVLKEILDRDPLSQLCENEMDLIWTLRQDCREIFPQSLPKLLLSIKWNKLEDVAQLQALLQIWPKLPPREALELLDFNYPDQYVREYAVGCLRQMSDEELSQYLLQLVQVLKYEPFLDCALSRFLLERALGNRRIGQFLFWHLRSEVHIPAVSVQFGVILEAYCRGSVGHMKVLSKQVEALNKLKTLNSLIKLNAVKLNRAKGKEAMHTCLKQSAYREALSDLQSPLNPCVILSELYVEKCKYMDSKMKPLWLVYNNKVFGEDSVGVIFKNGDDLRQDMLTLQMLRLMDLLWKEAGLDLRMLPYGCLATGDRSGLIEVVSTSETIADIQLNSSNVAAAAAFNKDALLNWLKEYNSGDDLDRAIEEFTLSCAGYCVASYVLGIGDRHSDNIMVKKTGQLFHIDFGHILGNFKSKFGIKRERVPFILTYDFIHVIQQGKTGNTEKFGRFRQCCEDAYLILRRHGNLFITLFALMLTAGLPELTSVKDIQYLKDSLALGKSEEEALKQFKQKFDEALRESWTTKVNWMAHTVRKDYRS

PIK3CA (human), sequence (P42336 whole entry, looked up): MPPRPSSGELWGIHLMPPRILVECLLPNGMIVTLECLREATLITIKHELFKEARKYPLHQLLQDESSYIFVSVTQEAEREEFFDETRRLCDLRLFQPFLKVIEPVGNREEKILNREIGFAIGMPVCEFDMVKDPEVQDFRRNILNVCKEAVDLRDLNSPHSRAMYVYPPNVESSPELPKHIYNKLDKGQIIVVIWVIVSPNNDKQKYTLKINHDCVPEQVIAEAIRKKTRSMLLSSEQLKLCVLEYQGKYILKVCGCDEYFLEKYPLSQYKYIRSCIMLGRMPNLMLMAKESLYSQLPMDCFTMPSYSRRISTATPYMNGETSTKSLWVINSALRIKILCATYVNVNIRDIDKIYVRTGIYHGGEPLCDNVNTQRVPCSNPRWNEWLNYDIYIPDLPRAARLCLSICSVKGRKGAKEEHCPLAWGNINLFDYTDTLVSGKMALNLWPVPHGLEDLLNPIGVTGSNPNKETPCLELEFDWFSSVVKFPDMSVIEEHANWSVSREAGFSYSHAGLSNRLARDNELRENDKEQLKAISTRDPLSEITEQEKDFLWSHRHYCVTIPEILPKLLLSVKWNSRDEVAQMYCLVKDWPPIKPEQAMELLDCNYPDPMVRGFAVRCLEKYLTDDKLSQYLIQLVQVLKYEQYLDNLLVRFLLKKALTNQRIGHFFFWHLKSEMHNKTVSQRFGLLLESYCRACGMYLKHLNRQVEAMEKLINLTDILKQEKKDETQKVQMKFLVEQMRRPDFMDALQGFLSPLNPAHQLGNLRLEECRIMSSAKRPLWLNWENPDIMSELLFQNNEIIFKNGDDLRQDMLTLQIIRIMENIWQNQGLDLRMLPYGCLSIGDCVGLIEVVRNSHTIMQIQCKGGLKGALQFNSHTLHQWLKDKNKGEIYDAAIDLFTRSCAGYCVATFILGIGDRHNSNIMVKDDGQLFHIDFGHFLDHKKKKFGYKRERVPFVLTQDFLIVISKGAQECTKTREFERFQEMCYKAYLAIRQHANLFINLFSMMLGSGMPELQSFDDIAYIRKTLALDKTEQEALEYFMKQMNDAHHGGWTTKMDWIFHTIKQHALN
PIK3CG (human), sequence (P48736 whole entry, looked up): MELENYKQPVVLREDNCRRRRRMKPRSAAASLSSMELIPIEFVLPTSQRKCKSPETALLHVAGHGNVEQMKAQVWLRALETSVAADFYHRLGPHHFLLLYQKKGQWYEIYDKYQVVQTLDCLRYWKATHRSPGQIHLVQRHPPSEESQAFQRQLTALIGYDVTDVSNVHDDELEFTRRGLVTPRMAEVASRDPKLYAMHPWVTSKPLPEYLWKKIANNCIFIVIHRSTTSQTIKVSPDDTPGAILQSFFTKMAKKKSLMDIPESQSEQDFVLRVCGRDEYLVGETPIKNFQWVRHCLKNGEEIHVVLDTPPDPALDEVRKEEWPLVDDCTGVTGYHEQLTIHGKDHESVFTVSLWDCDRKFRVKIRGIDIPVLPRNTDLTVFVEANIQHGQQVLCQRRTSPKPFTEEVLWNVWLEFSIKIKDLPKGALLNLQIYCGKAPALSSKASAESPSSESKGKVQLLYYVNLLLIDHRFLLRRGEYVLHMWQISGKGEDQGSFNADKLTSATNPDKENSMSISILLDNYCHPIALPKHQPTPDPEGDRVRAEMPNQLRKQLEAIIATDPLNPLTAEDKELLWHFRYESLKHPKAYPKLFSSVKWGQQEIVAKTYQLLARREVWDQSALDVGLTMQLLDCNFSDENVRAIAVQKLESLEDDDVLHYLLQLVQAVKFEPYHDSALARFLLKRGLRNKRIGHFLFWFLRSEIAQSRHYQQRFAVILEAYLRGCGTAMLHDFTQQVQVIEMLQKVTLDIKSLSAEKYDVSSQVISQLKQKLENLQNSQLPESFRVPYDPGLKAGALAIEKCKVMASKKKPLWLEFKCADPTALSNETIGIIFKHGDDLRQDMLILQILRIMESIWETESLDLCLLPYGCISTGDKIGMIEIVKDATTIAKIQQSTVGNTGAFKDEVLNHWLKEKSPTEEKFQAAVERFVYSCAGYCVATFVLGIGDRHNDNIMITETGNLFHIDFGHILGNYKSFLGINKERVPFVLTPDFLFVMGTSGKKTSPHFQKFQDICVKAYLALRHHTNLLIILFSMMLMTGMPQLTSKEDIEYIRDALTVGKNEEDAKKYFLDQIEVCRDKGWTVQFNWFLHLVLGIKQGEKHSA
PIK3CD (Human), sequence (O00329 whole entry, looked up): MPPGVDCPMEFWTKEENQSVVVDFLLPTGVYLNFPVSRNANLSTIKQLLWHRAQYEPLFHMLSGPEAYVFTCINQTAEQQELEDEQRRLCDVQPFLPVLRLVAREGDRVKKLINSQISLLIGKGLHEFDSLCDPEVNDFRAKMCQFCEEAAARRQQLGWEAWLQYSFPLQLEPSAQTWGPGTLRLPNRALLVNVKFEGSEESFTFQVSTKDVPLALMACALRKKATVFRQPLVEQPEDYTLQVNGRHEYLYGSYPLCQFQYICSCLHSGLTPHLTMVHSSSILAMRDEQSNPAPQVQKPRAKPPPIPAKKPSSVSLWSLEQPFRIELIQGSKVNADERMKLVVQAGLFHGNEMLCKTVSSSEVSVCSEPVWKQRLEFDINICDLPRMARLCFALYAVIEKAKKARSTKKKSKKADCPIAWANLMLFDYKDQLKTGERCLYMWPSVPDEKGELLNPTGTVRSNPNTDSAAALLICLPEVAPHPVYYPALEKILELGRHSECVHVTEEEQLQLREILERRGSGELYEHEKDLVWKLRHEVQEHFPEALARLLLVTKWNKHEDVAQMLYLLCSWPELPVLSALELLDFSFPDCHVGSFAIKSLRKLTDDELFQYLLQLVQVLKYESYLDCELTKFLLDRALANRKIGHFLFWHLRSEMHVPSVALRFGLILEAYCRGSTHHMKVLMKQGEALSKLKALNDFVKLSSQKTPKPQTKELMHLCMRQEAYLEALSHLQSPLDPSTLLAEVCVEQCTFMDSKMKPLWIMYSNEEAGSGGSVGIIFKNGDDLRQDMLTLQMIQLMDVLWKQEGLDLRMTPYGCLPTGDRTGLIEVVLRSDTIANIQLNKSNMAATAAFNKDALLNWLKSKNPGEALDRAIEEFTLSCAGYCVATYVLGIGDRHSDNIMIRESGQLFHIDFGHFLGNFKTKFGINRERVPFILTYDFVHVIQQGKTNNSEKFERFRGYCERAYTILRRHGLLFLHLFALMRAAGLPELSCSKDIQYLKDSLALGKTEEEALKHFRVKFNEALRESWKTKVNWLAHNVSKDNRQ

Compound	IC50 [1] [µM]	IC50 [2] [µM]	IC50 [3] [µM]	IC50 [4] [µM]	Ki [2] [µM]
Cc1cccc(C(=O)Nc2cc(-c3cccc4[nH]ccc34)cc3[nH]ncc23)n1	0.794	0.0158	20	3.16	–
Cc1nc(C(=O)Nc2cc(-c3cncc(NS(C)(=O)=O)c3)cc3[nH]ncc23)cs1	0.316	0.0794	7.94	> 25.1	–
O=C(Nc1cc(-c2cccc3[nH]ccc23)cc2[nH]ncc12)c1csc(CN2CCOCC2)n1	3.16	0.00631	10	7.94	–
CC(C)N1CCN(Cc2cnc(-c3cc(-c4cccc5[nH]ccc45)cc4[nH]ncc34)o2)CC1	6.31	> 25.1	5.01	1.58	0.000126
c1cc(-c2cc(-c3ncco3)c3cn[nH]c3c2)c2cc[nH]c2c1	1.26	0.0794	10	1.26	–
CC(C)N1CCN(Cc2nnc(-c3cc(-c4cccc5[nH]ccc45)cc4[nH]ncc34)o2)CC1	10	0.00126	12.6	3.16	–
COc1ncc(-c2cc(NC(=O)c3csc(C)n3)c3cn[nH]c3c2)cc1NS(C)(=O)=O	0.2	0.0126	0.794	0.794	–
O=C(Nc1cc(-c2cccc3[nH]ccc23)cc2[nH]ncc12)c1cscn1	10	0.158	> 25.1	12.6	–
Cc1nc(C(=O)Nc2cc(-c3cccc4[nH]ncc34)cc3[nH]ncc23)cs1	6.31	0.316	> 25.1	> 25.1	–
Cc1nc(C(=O)Nc2cc(-c3cnc(Cl)c(CS(=O)(=O)c4ccccc4)c3)cc3[nH]ncc23)cs1	> 25.1	1	25.1	20	–
COc1ncc(-c2cc(NC(=O)c3csc(CN4C[C@@H](C)O[C@@H](C)C4)n3)c3cn[nH]c3c2)cc1NS(C)(=O)=O	0.316	> 25.1	0.398	2.51	0.0001
C[C@@H]1CN(Cc2nnc(-c3cc(-c4cccc5[nH]ccc45)cc4[nH]ncc34)o2)C[C@H](C)O1	2	0.00316	> 25.1	1	–
O=C(Nc1cc(-c2cccc3[nH]ccc23)cc2[nH]ncc12)c1ccccn1	6.31	0.1	10	6.31	0.0501
O=C(Nc1cc(-c2cccc3[nH]ccc23)cc2[nH]ncc12)c1csc(-c2ccccc2)n1	7.94	0.501	> 25.1	12.6	–
Cc1nc(C(=O)Nc2cc(-c3ccc(Cl)c(NS(C)(=O)=O)c3)cc3[nH]ncc23)cs1	3.98	0.631	15.8	15.8	–
O=C(Nc1cc(-c2cccc3[nH]ccc23)cc2[nH]ncc12)c1ccccc1	12.6	1.26	> 25.1	20	–
Cc1nc(C(=O)Nc2cc(-c3cccc4[nH]cnc34)cc3[nH]ncc23)cs1	> 25.1	0.316	> 25.1	> 25.1	–

Compound	IC50 [1] [µM]	IC50 [2] [µM]	IC50 [3] [µM]	IC50 [4] [µM]	Ki [2] [µM]
Cc1nnc(-c2cc(-c3cccc4[nH]ccc34)cc3[nH]ncc23)o1	1.26	0.1	> 25.1	3.16	–
Cc1ccc(C(=O)Nc2cc(-c3cccc4[nH]ccc34)cc3[nH]ncc23)nc1	1.26	0.126	> 25.1	15.8	–
O=C(Nc1cc(-c2cccc3[nH]ccc23)cc2[nH]ncc12)c1csc(Cc2ccccc2)n1	12.6	0.0794	> 25.1	> 25.1	–
Cc1nc(C(=O)Nc2cc(-c3cccc4[nH]ccc34)cc3[nH]ncc23)cs1	3.98	0.0501	> 25.1	10	–
COc1cc(-c2cc(NC(=O)c3csc(C)n3)c3cn[nH]c3c2)c2cc[nH]c2c1	7.94	0.0126	6.31	2.51	–
Cc1nc(C(=O)Nc2cc(-c3cnc(C)c(NS(C)(=O)=O)c3)cc3[nH]ncc23)cs1	0.631	0.0316	3.16	3.98	–
C[C@@H]1CN(Cc2nc(C(=O)Nc3cc(-c4cccc5[nH]ccc45)cc4[nH]ncc34)cs2)C[C@H](C)O1	2.51	0.002	12.6	5.01	–
C[C@@H]1CN(Cc2cnc(-c3cc(-c4cccc5[nH]ccc45)cc4[nH]ncc34)o2)C[C@H](C)O1	2	0.00251	15.8	1	–
Cc1ccc(-c2cc(-c3cccc4[nH]ccc34)cc3[nH]ncc23)s1	3.98	0.794	7.94	6.31	–
Cc1nc(C(=O)Nc2cc(-c3cc(F)cc4[nH]ccc34)cc3[nH]ncc23)cs1	3.16	0.0158	12.6	3.16	–
COc1ncc(-c2cc(-c3ncc(CN4C[C@@H](C)O[C@@H](C)C4)o3)c3cn[nH]c3c2)cc1NS(C)(=O)=O	0.501	–	0.501	0.631	–
Cc1coc(-c2cc(-c3cccc4[nH]ccc34)cc3[nH]ncc23)n1	0.631	0.126	12.6	0.794	–
Cc1cnc(-c2cc(-c3cccc4[nH]ccc34)cc3[nH]ncc23)o1	0.398	0.0631	10	1.26	–
O=C(Nc1cc(-c2cccc3[nH]ccc23)cc2[nH]ncc12)c1csc(CN2CCCCC2)n1	15.8	0.01	20	15.8	–
C[C@@H]1CN(Cc2coc(-c3cc(-c4cccc5[nH]ccc45)cc4[nH]ncc34)n2)C[C@H](C)O1	2.51	0.00501	12.6	1.26	–
Cc1nc(C(=O)Nc2cc(-c3cc(Cl)cc4[nH]ccc34)cc3[nH]ncc23)cs1	3.98	0.00794	5.01	1	–

Continued, values first:

IC50 [1] [µM]	IC50 [2] [µM]	IC50 [3] [µM]	IC50 [4] [µM]	Ki [2] [µM]	Compound
2.51	0.398	> 25.1	6.31	–	Cc1csc(-c2cc(-c3cccc4[nH]ccc34)cc3[nH]ncc23)n1
15.8	0.00398	12.6	3.98	–	CC(C)N1CCN(Cc2coc(-c3cc(-c4cccc5[nH]ccc45)cc4[nH]ncc34)n2)CC1
3.98	0.251	10	6.31	–	Cc1cnc(-c2cc(-c3cccc4[nH]ccc34)cc3[nH]ncc23)s1
3.16	0.02	7.94	3.16	–	Cc1cc2c(-c3cc(NC(=O)c4csc(C)n4)c4cn[nH]c4c3)cccc2[nH]1
12.6	0.316	15.8	7.94	–	Cc1nc(C(=O)Nc2cc(-c3cccc(O)c3)cc3[nH]ncc23)cs1
> 25.1	5.01	> 25.1	> 25.1	–	Cc1nc(C(=O)Nc2cc(-c3cccc4c3ccn4C)cc3[nH]ncc23)cs1
> 25.1	15.8	> 25.1	> 25.1	–	CN(C(=O)c1ccccn1)c1cc(-c2cccc3[nH]ccc23)cc2[nH]ncc12
0.0251	0.00126	0.2	0.501	–	Cc1nc(C(=O)Nc2cc(-c3cnc(Cl)c(NS(=O)(=O)c4ccccc4)c3)cc3[nH]ncc23)cs1
0.251	0.00794	7.94	5.01	–	Cc1nc(C(=O)Nc2cc(-c3ccnc4[nH]ccc34)cc3[nH]ncc23)cs1
0.0501	0.002	0.316	1	–	Cc1nc(C(=O)Nc2cc(-c3cnc(Cl)c(NS(C)(=O)=O)c3)cc3[nH]ncc23)cs1
3.98	0.00316	1.26	1.58	–	CC(C)N1CCN(Cc2nc(C(=O)Nc3cc(-c4cccc5[nH]ccc45)cc4[nH]ncc34)cs2)CC1
2	0.126	5.01	2.51	–	Cc1ccc(-c2cc(-c3cccc4[nH]ccc34)cc3[nH]ncc23)o1
> 25.1	0.0126	> 25.1	12.6	–	O=C(Nc1cc(-c2cccc3[nH]ccc23)cc2[nH]ncc12)c1cccc(CN2CCCCC2)n1
20	1	> 25.1	> 25.1	–	CC(C)n1nccc1C(=O)Nc1cc(-c2cccc3[nH]ccc23)cc2[nH]ncc12
20	0.794	> 25.1	20	–	Cn1nccc1C(=O)Nc1cc(-c2cccc3[nH]ccc23)cc2[nH]ncc12
10	0.00398	7.94	7.94	–	O=C(Nc1cc(-c2cccc3[nH]ccc23)cc2[nH]ncc12)c1csc(CN2CCN3CCC[C@H]3C2)n1
> 25.1	0.501	> 25.1	> 25.1	–	Cc1nc(C(=O)Nc2cc(-c3cnc(Cl)c(N(C)S(=O)(=O)c4ccccc4)c3)cc3[nH]ncc23)cs1
10	0.1	> 25.1	12.6	–	Cn1ccc(C(=O)Nc2cc(-c3cccc4[nH]ccc34)cc3[nH]ncc23)n1
